In PubChem BioAssay (NCI):
“And” between values parts separate entries of the source, which are not always exact repeats. Equal entries are not always repeated.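 Five compound concentrations were applied to cells in 96-well plates for 48 hours; endpoints were derived by simple linear interpolation of the resulting dose-response curve. GI50 is the concentration that inhibits growth by half. TGI marks complete inhibition of growth.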

Legend:
Assay in all cases: inhibition of tumour cell growth, NCI panel, 48 h
BT-549 breast = test system: BT-549 breast
SF-268 CNS = test system: SF-268 CNS
IGROV1 ovarian = test system: IGROV1 ovarian
A498 renal = test system: A498 renal
OVCAR-4 ovarian = test system: OVCAR-4 ovarian
HOP-62 NSCLC = test system: HOP-62 NSCLC
MDA-MB-435 = test system: MDA-MB-435
RPMI-8226 leukemia = test system: RPMI-8226 leukemia
HT29 colon = test system: HT29 colon
UACC-257 melanoma = test system: UACC-257 melanoma
DU-145 prostate = test system: DU-145 prostate
NCI-H460 lung = test system: NCI-H460 lung
NCI-H226 lung = test system: NCI-H226 lung
SN12C renal = test system: SN12C renal
MDA-MB-231 breast = test system: MDA-MB-231 breast
SF-539 CNS = test system: SF-539 CNS
OVCAR-5 ovarian = test system: OVCAR-5 ovarian
HS 578T breast = test system: HS 578T breast
786-0 renal = test system: 786-0 renal
SK-MEL-28 melanoma = test system: SK-MEL-28 melanoma
ACHN renal = test system: ACHN renal
SF-295 CNS = test system: SF-295 CNS
NCI/ADR-RES ovarian = test system: NCI/ADR-RES ovarian
SR leukemia = test system: SR leukemia
PC-3 prostate = test system: PC-3 prostate
OVCAR-3 ovarian = test system: OVCAR-3 ovarian
SK-OV-3 ovarian = test system: SK-OV-3 ovarian
SNB-75 CNS = test system: SNB-75 CNS
SW-620 colon = test system: SW-620 colon
K-562 leukemia = test system: K-562 leukemia
HCC-2998 colon = test system: HCC-2998 colon
RXF 393 renal = test system: RXF 393 renal
SK-MEL-2 melanoma = test system: SK-MEL-2 melanoma
KM12 colon = test system: KM12 colon
UO-31 renal = test system: UO-31 renal
OVCAR-8 ovarian = test system: OVCAR-8 ovarian
MALME-3M melanoma = test system: MALME-3M melanoma
TK-10 renal = test system: TK-10 renal
SK-MEL-5 melanoma = test system: SK-MEL-5 melanoma
EKVX NSCLC = test system: EKVX NSCLC
T-47D breast = test system: T-47D breast
U251 CNS = test system: U251 CNS
NCI-H23 lung = test system: NCI-H23 lung
NCI-H522 lung = test system: NCI-H522 lung
LOX IMVI melanoma = test system: LOX IMVI melanoma
SNB-19 CNS = test system: SNB-19 CNS
M14 melanoma = test system: M14 melanoma
HL-60(TB) leukemia = test system: HL-60(TB) leukemia
MCF7 breast = test system: MCF7 breast
A549 NSCLC = test system: A549 NSCLC
UACC-62 melanoma = test system: UACC-62 melanoma
HCT-15 colon = test system: HCT-15 colon
CAKI-1 renal = test system: CAKI-1 renal
HCT-116 colon = test system: HCT-116 colon
COLO 205 colon = test system: COLO 205 colon
HOP-92 NSCLC = test system: HOP-92 NSCLC

COc1cc2nnc3c4cccnc4[nH]c3c2cc1OC
GI50 (BT-549 breast): 6.42 µM and 3.75 µM | TGI (BT-549 breast): 43.9 µM and 35.1 µM | GI50 (SF-268 CNS): 1.48 µM and 0.535 µM | TGI (SF-268 CNS): 12.9 µM and 4.53 µM | GI50 (IGROV1 ovarian): 1.02 µM and 1.73 µM | TGI (IGROV1 ovarian): 19.4 µM and 5.83 µM | GI50 (A498 renal): 9.26 µM and 2.74 µM | TGI (A498 renal): 26.2 µM and 12.4 µM | GI50 (OVCAR-4 ovarian): 1.95 µM and 1.6 µM | TGI (OVCAR-4 ovarian): 50 µM and > 100 µM | GI50 (HOP-62 NSCLC): 13.5 µM and 2.26 µM | TGI (HOP-62 NSCLC): 37.1 µM and 5.61 µM | GI50 (MDA-MB-435): 5.66 µM and 2.23 µM | TGI (MDA-MB-435): 38.7 µM and 6.96 µM | GI50 (RPMI-8226 leukemia): 1.45 µM and 0.187 µM | GI50 (HT29 colon): 1.81 µM and 1.34 µM | GI50 (UACC-257 melanoma): 9.13 µM and 3.32 µM | TGI (UACC-257 melanoma): 50 µM and 27.7 µM | GI50 (DU-145 prostate): 4.32 µM and 2.1 µM | TGI (DU-145 prostate): 18.3 µM and 5.11 µM | GI50 (NCI-H460 lung): 2.84 µM and 2.46 µM | TGI (NCI-H460 lung): 12.9 µM and 8.63 µM | GI50 (NCI-H226 lung): 5.44 µM and 1.94 µM | TGI (NCI-H226 lung): 21.4 µM and 5.11 µM | GI50 (SN12C renal): 1.9 µM and 2.27 µM | TGI (SN12C renal): 19.2 µM and 8.47 µM | GI50 (MDA-MB-231 breast): 3.14 µM and 2.69 µM | TGI (MDA-MB-231 breast): 50 µM and > 100 µM | GI50 (SF-539 CNS): 2.79 µM and 1.73 µM | TGI (SF-539 CNS): 11.4 µM and 3.52 µM | GI50 (OVCAR-5 ovarian): 7.26 µM and 2.53 µM | TGI (OVCAR-5 ovarian): 50 µM and 7.24 µM | GI50 (HS 578T breast): 4.21 µM and 3.7 µM | TGI (HS 578T breast): 50 µM and 82.7 µM | GI50 (786-0 renal): 1.46 µM and 0.319 µM | TGI (786-0 renal): 7.1 µM and 1.63 µM | GI50 (SK-MEL-28 melanoma): 18.8 µM and 4.49 µM | TGI (SK-MEL-28 melanoma): 50 µM and > 100 µM | GI50 (ACHN renal): 0.298 µM and 0.333 µM | TGI (ACHN renal): 3.54 µM and 1.52 µM | GI50 (SF-295 CNS): 9.72 µM and 2.43 µM | TGI (SF-295 CNS): 50 µM and 6.92 µM | GI50 (NCI/ADR-RES ovarian): 2.19 µM | TGI (NCI/ADR-RES ovarian): 50 µM | GI50 (SR leukemia): 0.117 µM and 0.0395 µM | TGI (PC-3 prostate): 50 µM and > 100 µM | GI50 (OVCAR-3 ovarian): 1.37 µM and 1.15 µM | TGI (OVCAR-3 ovarian): 22.6 µM and 5.5 µM | GI50 (SK-OV-3 ovarian): 8.47 µM and 2.29 µM | TGI (SK-OV-3 ovarian): 36 µM and 9.24 µM | GI50 (SNB-75 CNS): 2.35 µM and 1.48 µM | TGI (SNB-75 CNS): 21.9 µM and 7.45 µM | GI50 (SW-620 colon): 0.961 µM and 0.444 µM | TGI (SW-620 colon): 50 µM and > 100 µM | GI50 (K-562 leukemia): 0.577 µM | TGI (K-562 leukemia): 50 µM | GI50 (HCC-2998 colon): 2.28 µM and 1.95 µM | TGI (HCC-2998 colon): 13.6 µM and 3.79 µM | GI50 (RXF 393 renal): 1.17 µM and 0.707 µM | GI50 (SK-MEL-2 melanoma): 13.8 µM and 11.3 µM | TGI (SK-MEL-2 melanoma): 50 µM and 37.9 µM | GI50 (KM12 colon): 2.68 µM and 1.91 µM | TGI (KM12 colon): 50 µM and 15.4 µM | GI50 (UO-31 renal): 1.52 µM and 0.486 µM | TGI (UO-31 renal): 10.9 µM and 2.66 µM | GI50 (OVCAR-8 ovarian): 3.91 µM and 1.25 µM | TGI (OVCAR-8 ovarian): 50 µM and > 100 µM | GI50 (MALME-3M melanoma): 7.54 µM and 2.28 µM | TGI (MALME-3M melanoma): 22.9 µM and 5.68 µM | GI50 (TK-10 renal): 10.3 µM and 2.38 µM | TGI (TK-10 renal): 50 µM and 7.83 µM | GI50 (SK-MEL-5 melanoma): 8.57 µM and 7.33 µM | TGI (SK-MEL-5 melanoma): 21.2 µM and 22.2 µM | GI50 (EKVX NSCLC): 3.39 µM and 2.43 µM | TGI (EKVX NSCLC): 50 µM and 8 µM | GI50 (T-47D breast): 0.595 µM and 0.401 µM | TGI (T-47D breast): 5.61 µM and 3.42 µM | GI50 (U251 CNS): 1.66 µM and 0.918 µM | GI50 (NCI-H23 lung): 11.1 µM and 2.34 µM | TGI (NCI-H23 lung): 40.5 µM and 6.71 µM | GI50 (NCI-H522 lung): 1.65 µM and 2.05 µM | TGI (NCI-H522 lung): 16.6 µM and 7.6 µM | GI50 (LOX IMVI melanoma): 1.43 µM and 1.41 µM | TGI (LOX IMVI melanoma): 15.7 µM and 4.69 µM | GI50 (SNB-19 CNS): 9.04 µM and 2.77 µM | TGI (SNB-19 CNS): 42.4 µM and 15.4 µM | GI50 (M14 melanoma): 8.18 µM and 1.79 µM | TGI (M14 melanoma): 27.4 µM and 3.49 µM | GI50 (HL-60(TB) leukemia): 0.111 µM | TGI (HL-60(TB) leukemia): 50 µM | GI50 (MCF7 breast): 0.836 µM and 0.34 µM | TGI (MCF7 breast): 10.9 µM and 2.82 µM | GI50 (A549 NSCLC): 16 µM and 7.9 µM | TGI (A549 NSCLC): 50 µM and 31.7 µM | GI50 (UACC-62 melanoma): 2.9 µM and 2.49 µM | TGI (UACC-62 melanoma): 12.5 µM and 9.65 µM | GI50 (HCT-15 colon): 2.3 µM and 1.43 µM | GI50 (CAKI-1 renal): 1.17 µM and 0.184 µM | GI50 (HCT-116 colon): 0.292 µM and 0.127 µM | GI50 (COLO 205 colon): 6.92 µM and 2.96 µM | TGI (COLO 205 colon): 16 µM and 11.6 µM | GI50 (HOP-92 NSCLC): 0.771 µM and 0.212 µM
